Patent publication US4231928A, “Antibacterial agents” (priority 1979, dated 1980)
Like-named read-outs stand apart in the source and are kept apart here.

Key:
Pseudomonas aeruginosa = experiment: Serial twofold agar dilution (Mueller-Hinton agar), P. aeruginosa; format: cell-based; conditions: Pseudomonas aeruginosa, Mueller-Hinton agar, read-out: MIC
Description: (§1) The Minimum Inhibitory Concentrations (MIC) for sodium 6-[D-(-)-α-phenyl-α-(7-hydroxy-4-oxo-4H-pyrimido[1,2-b]pyridazin-3-ylcarboxamido)acetamido]penicillanate (BB-P598) and sulbenicillin were determined by the serial twofold agar dilution method using Steers' apparatus on Mueller-Hinton agar plates against 31 test organisms for the primary screening (Table 1) and also against 61 strains of Pseudomonas aeruginosa for the secondary evaluation (Table 2).
(§2) Minimum Inhibitory Concentrations (MIC) for sodium 6-[D-(-)-α-phenyl-α-(7-hydroxy-4-oxo-4H-pyrimido[1,2-b]pyridazin-3-ylcarboxamido)acetamido]pencillanate (BB-P598), sodium 6-[D-(-)-α-(4-hydroxyphenyl)-α-(7-hydroxy-4-oxo-4H-pyrimido[1,2-b]pyridazin-3-ylcarboxamido)acetamido]-penicillanate (BB-P642) and carbenicillin were determined by the serial twofold agar dilution method using Steers' apparatus on Mueller-Hinton agar plates against 31 tests organisms (Table 8) and also against 61 strains of Pseudomonas aeruginosa (Table 9). In terms of mean % relative activity compared with carbenicillin, compounds BB-B598 and BB-P642 were 856% and 1319% as active as carbenicillin against the 61 Pseudomonas strains of Table 9.

Pseudomonas sp. = experiment: Serial twofold agar dilution (Mueller-Hinton agar), Pseudomonas sp.; format: cell-based
Description: as §1, §2

[1] = Mouse blood levels after subcutaneous administration; conditions: in vivo, sc, 20 mg/kg
Description: Mouse blood levels of BB-[…] and BB-[…] were determined by subcutaneous administration of 20 mg/kg of the penicillin to groups of three mice. Blood samples collected from orbital sinuses were assayed by the paper disk agar-diffusion method on Sarcina lutea PC1 1001 plates.

CC1(C)S[C@@H]2[C@H](NC(=O)[C@H](NC(=O)c3cnc4ccc(O)nn4c3=O)c3ccccc3)C(=O)N2[C@H]1C(=O)O [BB-P598, sodium 6-[D-(-)-α-phenyl-α-(7-hydroxy-4-oxo-4H-pyrimido[1,2-b]pyridazin-3-ylcarboxamido)acetamido]penicillanate]
MIC (Pseudomonas aeruginosa; Pa-17 H6, D114, Table 9): 1.6 µg/mL
MIC (Pseudomonas aeruginosa; Pa-17 H6 D114, Table 2): 3.1 µg/mL
MIC (Pseudomonas aeruginosa; Pa-18 H8, D121, Table 9): 1.6 µg/mL
MIC (Pseudomonas aeruginosa; Pa-18 H8 D121, Table 2): 3.1 µg/mL
MIC (Pseudomonas aeruginosa; Pa-19 A20229, Table 2): 1.6 µg/mL
MIC (Pseudomonas aeruginosa; Pa-19 A20229, Table 9): 0.8 µg/mL
MIC (Pseudomonas aeruginosa; Pa-20 A20325, Table 2): 6.3 µg/mL
MIC (Pseudomonas aeruginosa; Pa-20 A20325, Table 9): 3.1 µg/mL
MIC (Pseudomonas aeruginosa; Pa-21 A20601, Table 2): 3.1 µg/mL
MIC (Pseudomonas aeruginosa; Pa-21 A20601, Table 9): 3.1 µg/mL
MIC (Pseudomonas aeruginosa; Pa-23 A20741, Table 2): 6.3 µg/mL
MIC (Pseudomonas aeruginosa; Pa-23 A20741, Table 9): 3.1 µg/mL
MIC (Pseudomonas aeruginosa; Pa-24 A20896, Table 2): 25 µg/mL
MIC (Pseudomonas aeruginosa; Pa-24 A20896, Table 9): 100 µg/mL
MIC (Pseudomonas aeruginosa; Pa-25 A20897, Table 2): 1.6 µg/mL
MIC (Pseudomonas aeruginosa; Pa-25 A20897, Table 9): 1.6 µg/mL
MIC (Pseudomonas aeruginosa; Pa-26 PS32, Table 9): 25 µg/mL
MIC (Pseudomonas aeruginosa; Pa-26 Ps32, Table 2): 1.6 µg/mL
MIC (Pseudomonas aeruginosa; Pa-28 C.P.H. 10527/72, Table 9): 3.1 µg/mL
MIC (Pseudomonas aeruginosa; Pa-28 CPH10527/72, Table 2): 6.3 µg/mL
MIC (Pseudomonas aeruginosa; Pa-29 D122, Table 2): 3.1 µg/mL
MIC (Pseudomonas aeruginosa; Pa-29 D122, Table 9): 3.1 µg/mL
MIC (Pseudomonas aeruginosa; Pa-30 A20600, Table 2): 3.1 µg/mL
MIC (Pseudomonas aeruginosa; Pa-30 A20600, Table 9): 1.6 µg/mL
MIC (Pseudomonas aeruginosa; Pa-31 A20594, Table 2): 0.8 µg/mL
MIC (Pseudomonas aeruginosa; Pa-31 A20594, Table 9): 1.6 µg/mL
MIC (Pseudomonas aeruginosa; Pa-32 A20595, Table 2): 3.1 µg/mL
MIC (Pseudomonas aeruginosa; Pa-32 A20595, Table 9): 3.1 µg/mL
MIC (Pseudomonas aeruginosa; Pa-33 A20598, Table 2): 12.5 µg/mL
MIC (Pseudomonas aeruginosa; Pa-33 A20598, Table 9): 1.6 µg/mL
MIC (Pseudomonas aeruginosa; Pa-34 A20603, Table 2): 3.1 µg/mL
MIC (Pseudomonas aeruginosa; Pa-34 A20603, Table 9): 1.6 µg/mL
MIC (Pseudomonas aeruginosa; Pa-35, Table 2): 12.5 µg/mL
MIC (Pseudomonas aeruginosa; Pa-35, Table 9): 6.3 µg/mL
MIC (Pseudomonas aeruginosa; Pa-36, Table 2): 0.4 µg/mL
MIC (Pseudomonas aeruginosa; Pa-36, Table 9): < 0.2 µg/mL
MIC (Pseudomonas aeruginosa; Pa-37 A20130, Table 2): 3.1 µg/mL
MIC (Pseudomonas aeruginosa; Pa-37 A20130, Table 9): 3.1 µg/mL
MIC (Pseudomonas aeruginosa; Pa-38 A20349, Table 2): 6.3 µg/mL
MIC (Pseudomonas aeruginosa; Pa-38 A20349, Table 9): 12.5 µg/mL
MIC (Pseudomonas aeruginosa; Pa-39 A20641, Table 2): 3.1 µg/mL
MIC (Pseudomonas aeruginosa; Pa-39 A20641, Table 9): 1.6 µg/mL
MIC (Pseudomonas aeruginosa; Pa-41 A21227, Table 2): 3.1 µg/mL
MIC (Pseudomonas aeruginosa; Pa-41 A21227, Table 9): 3.1 µg/mL
MIC (Pseudomonas aeruginosa; Pa-42 A21229, Table 2): 25 µg/mL
MIC (Pseudomonas aeruginosa; Pa-42 A21229, Table 9): 6.3 µg/mL
MIC (Pseudomonas aeruginosa; Pa-43 A21233, Table 2): 3.1 µg/mL
MIC (Pseudomonas aeruginosa; Pa-43 A21233, Table 9): 3.1 µg/mL
MIC (Pseudomonas aeruginosa; Pa-44 A21274, Table 2): 3.1 µg/mL
MIC (Pseudomonas aeruginosa; Pa-44 A21274, Table 9): 6.3 µg/mL
MIC (Pseudomonas aeruginosa; Pa-51 A9910, Table 2): 3.1 µg/mL
MIC (Pseudomonas aeruginosa; Pa-51 A9910, Table 9): 3.1 µg/mL
MIC (Pseudomonas aeruginosa; Pa-52 A9926, Table 2): 3.1 µg/mL
MIC (Pseudomonas aeruginosa; Pa-52 A9926, Table 9): 3.1 µg/mL
MIC (Pseudomonas aeruginosa; Pa-53 A20126, Table 2): 3.1 µg/mL
MIC (Pseudomonas aeruginosa; Pa-53 A20126, Table 9): 3.1 µg/mL
MIC (Pseudomonas aeruginosa; Pa-54 A20128, Table 2): 3.1 µg/mL
MIC (Pseudomonas aeruginosa; Pa-54 A20128, Table 9): 3.1 µg/mL
MIC (Pseudomonas aeruginosa; Pa-55 A20227, Table 2): 3.1 µg/mL
MIC (Pseudomonas aeruginosa; Pa-55 A20227, Table 9): 3.1 µg/mL
MIC (Pseudomonas aeruginosa; Pa-56 A20228, Table 2): 3.1 µg/mL
MIC (Pseudomonas aeruginosa; Pa-56 A20228, Table 9): 3.1 µg/mL
MIC (Pseudomonas aeruginosa; Pa-57 A20546, Table 2): 3.1 µg/mL
MIC (Pseudomonas aeruginosa; Pa-57 A20546, Table 9): 3.1 µg/mL
MIC (Pseudomonas aeruginosa; Pa-58 A20557, Table 2): 6.3 µg/mL
MIC (Pseudomonas aeruginosa; Pa-58 A20557, Table 9): 6.3 µg/mL
MIC (Pseudomonas aeruginosa; Pa-59 A20574, Table 2): 6.3 µg/mL
MIC (Pseudomonas aeruginosa; Pa-59 A20574, Table 9): 1.6 µg/mL
MIC (Pseudomonas aeruginosa; Pa-60 A20602, Table 2): 1.6 µg/mL
MIC (Pseudomonas aeruginosa; Pa-60 A20602, Table 9): 1.6 µg/mL
MIC (Pseudomonas aeruginosa; Pa-61 A20726, Table 2): 6.3 µg/mL
MIC (Pseudomonas aeruginosa; Pa-61 A20726, Table 9): 3.1 µg/mL
MIC (Pseudomonas aeruginosa; Pa-62 A21213, Table 2): 12.5 µg/mL
MIC (Pseudomonas aeruginosa; Pa-62 A21213, Table 9): > 100 µg/mL
MIC (Pseudomonas aeruginosa; Pa-64 A21336, Table 2): 3.1 µg/mL
MIC (Pseudomonas aeruginosa; Pa-64 A21336, Table 9): 1.6 µg/mL
MIC (Pseudomonas aeruginosa; Pa-65 A21428, Table 2): 1.6 µg/mL
MIC (Pseudomonas aeruginosa; Pa-65 A21428, Table 9): 1.6 µg/mL
MIC (Pseudomonas aeruginosa; Pa-66 A21434, Table 2): 3.1 µg/mL
MIC (Pseudomonas aeruginosa; Pa-66 A21434, Table 9): 3.1 µg/mL
MIC (Pseudomonas aeruginosa; Pa-67 A21509, Table 2): 6.3 µg/mL
MIC (Pseudomonas aeruginosa; Pa-67 A21509, Table 9): 6.3 µg/mL
MIC (Pseudomonas aeruginosa; Pa-68 A21510, Table 2): 6.3 µg/mL
MIC (Pseudomonas aeruginosa; Pa-68 A21510, Table 9): 3.1 µg/mL
MIC (Pseudomonas aeruginosa; Pa-69 A21587, Table 2): 12.5 µg/mL
MIC (Pseudomonas aeruginosa; Pa-69 A21587, Table 9): 6.3 µg/mL
MIC (Pseudomonas aeruginosa; Pa-70 K-PS102 (KR-102), Table 9): 3.1 µg/mL
MIC (Pseudomonas aeruginosa; Pa-70 K-Ps102 (CR-102), Table 2): 3.1 µg/mL
MIC (Pseudomonas sp.; Pseudomonas sp. A20358, Table 1, read-out: MIC): 1.6 µg/mL
MIC (Pseudomonas sp.; Pseudomonas sp. A20358, Table 8): 1.6 µg/mL
concentration at 0.25 h [1]: 3570 ng/mL
concentration at 0.5 h [1]: 900 ng/mL
